In patent publication EP4467141A1, “PYRAZOLO-QUINOLINES AS SELECTIVE INHIBITORS OF GENOTOXIC STRESS-INDUCED IKK/NF- KB PATHWAYS FOR CANCER THERAPY” (Max-Delbrück-Centrum für Molekulare Medizin in der …, priority 2023, dated 2024):

Columns and labels:
Assay in all cases: Kinase panel study
Type in all cases: biochemical
Settings in all cases: read-out: Percentage of inhibition; for inhibition at 1 µM: 1000nM; for inhibition at 10 µM: 10000nM
CAMK2D (CaMKII delta) = target: T1, CAMK2D (CaMKII delta) (Homo sapiens, UniProt Q13557)
T1 construct: purchased Thermo Fisher Scientific
How it was run: (§1)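 Readout is percentage kinase inhibition. Testing used 1 µM or 10 µM compound in externally run ZLyte/Adapta in vitro assays, and IC50 values were derived within the same panel.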

CDK2/cyclin A = target: T2, CDK2/cyclin A (Homo sapiens, UniProt P24941)
T2 construct: purchased Thermo Fisher Scientific
How it was run: as §1

CHEK1 (CHK1) = target: T3, CHEK1 (CHK1) (Homo sapiens, UniProt O14757)
T3 construct: purchased Thermo Fisher Scientific
T3 sequence (O14757 1-476): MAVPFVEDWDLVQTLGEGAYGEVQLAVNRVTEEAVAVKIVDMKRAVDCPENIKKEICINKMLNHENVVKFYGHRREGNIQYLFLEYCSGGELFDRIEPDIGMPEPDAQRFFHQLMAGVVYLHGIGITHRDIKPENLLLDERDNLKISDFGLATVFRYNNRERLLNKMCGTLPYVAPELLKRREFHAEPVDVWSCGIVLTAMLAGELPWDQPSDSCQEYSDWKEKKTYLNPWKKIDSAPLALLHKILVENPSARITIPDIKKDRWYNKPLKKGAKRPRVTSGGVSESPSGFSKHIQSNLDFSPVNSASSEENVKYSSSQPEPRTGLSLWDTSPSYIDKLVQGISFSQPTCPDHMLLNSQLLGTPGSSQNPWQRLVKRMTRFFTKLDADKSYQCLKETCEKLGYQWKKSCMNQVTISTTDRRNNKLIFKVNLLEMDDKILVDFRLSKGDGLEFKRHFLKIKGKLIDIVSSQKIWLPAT
How it was run: as §1

CSNK1G1 (CK1 gamma 1) = target: T4, CSNK1G1 (CK1 gamma 1) (Homo sapiens, UniProt Q9HCP0)
T4 construct: purchased Thermo Fisher Scientific
How it was run: as §1

CSNK1G3 (CK1 gamma 3) = target: T5, CSNK1G3 (CK1 gamma 3) (Homo sapiens, UniProt Q9Y6M4)
T5 construct: purchased Thermo Fisher Scientific
How it was run: as §1

FER = target: T6, FER (Homo sapiens, UniProt P16591)
T6 construct: purchased Thermo Fisher Scientific
How it was run: as §1

NEK2 = target: T7, NEK2 (Homo sapiens, UniProt P51955)
T7 construct: purchased Thermo Fisher Scientific
T7 sequence (P51955 1-445): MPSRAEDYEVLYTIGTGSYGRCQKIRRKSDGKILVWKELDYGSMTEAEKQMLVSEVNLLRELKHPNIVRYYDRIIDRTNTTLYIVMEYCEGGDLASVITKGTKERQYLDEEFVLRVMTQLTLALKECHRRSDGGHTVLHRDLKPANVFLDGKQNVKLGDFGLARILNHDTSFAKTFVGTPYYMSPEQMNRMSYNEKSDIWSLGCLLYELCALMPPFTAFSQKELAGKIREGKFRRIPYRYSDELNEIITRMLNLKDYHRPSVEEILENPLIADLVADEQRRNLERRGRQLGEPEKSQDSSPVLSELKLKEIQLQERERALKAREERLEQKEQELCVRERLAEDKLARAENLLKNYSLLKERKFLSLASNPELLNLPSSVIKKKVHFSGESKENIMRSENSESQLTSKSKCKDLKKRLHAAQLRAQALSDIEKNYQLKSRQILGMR
How it was run: as §1

PAK4 = target: T8, PAK4 (Homo sapiens, UniProt O96013)
T8 construct: purchased Thermo Fisher Scientific
How it was run: as §1

PEAK1 = target: T9, PEAK1 (Homo sapiens, UniProt Q9H792)
T9 construct: purchased Thermo Fisher Scientific
How it was run: as §1

RPS6KA5 (MSK1) = target: T10, RPS6KA5 (MSK1) (Homo sapiens, UniProt O75582)
T10 construct: purchased Thermo Fisher Scientific
How it was run: as §1

T10 sequence (O75582 whole entry): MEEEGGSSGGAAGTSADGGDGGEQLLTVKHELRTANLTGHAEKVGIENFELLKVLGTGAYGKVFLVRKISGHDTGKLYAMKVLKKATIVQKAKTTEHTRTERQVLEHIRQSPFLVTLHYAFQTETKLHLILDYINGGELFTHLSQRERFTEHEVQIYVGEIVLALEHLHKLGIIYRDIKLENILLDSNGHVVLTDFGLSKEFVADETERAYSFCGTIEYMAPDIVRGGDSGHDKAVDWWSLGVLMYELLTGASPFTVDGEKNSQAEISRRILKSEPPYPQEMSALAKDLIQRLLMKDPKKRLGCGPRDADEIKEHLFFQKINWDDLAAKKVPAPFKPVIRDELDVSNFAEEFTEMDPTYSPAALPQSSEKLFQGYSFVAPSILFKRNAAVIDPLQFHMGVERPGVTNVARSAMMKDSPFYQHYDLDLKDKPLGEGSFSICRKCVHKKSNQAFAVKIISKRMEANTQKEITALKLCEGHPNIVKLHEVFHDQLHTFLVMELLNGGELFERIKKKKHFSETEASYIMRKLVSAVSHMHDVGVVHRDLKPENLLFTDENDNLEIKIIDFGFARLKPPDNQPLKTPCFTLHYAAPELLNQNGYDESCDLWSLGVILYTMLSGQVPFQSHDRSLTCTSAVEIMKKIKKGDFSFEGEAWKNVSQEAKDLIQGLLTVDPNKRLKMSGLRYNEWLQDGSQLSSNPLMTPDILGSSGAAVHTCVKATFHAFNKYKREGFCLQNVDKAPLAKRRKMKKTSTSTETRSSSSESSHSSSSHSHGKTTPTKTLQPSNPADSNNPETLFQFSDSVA
T4 sequence (Q9HCP0 whole entry): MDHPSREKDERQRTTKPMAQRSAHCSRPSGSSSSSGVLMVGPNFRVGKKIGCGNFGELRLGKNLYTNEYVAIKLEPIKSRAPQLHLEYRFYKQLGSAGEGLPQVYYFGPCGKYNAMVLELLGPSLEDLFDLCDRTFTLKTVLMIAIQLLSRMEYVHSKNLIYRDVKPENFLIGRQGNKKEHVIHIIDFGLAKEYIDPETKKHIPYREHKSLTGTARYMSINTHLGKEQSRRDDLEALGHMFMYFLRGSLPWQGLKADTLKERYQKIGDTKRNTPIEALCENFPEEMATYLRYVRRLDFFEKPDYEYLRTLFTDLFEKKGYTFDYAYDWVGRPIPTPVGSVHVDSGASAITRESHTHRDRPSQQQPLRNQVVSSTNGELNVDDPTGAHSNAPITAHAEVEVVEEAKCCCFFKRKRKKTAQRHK
T6 sequence (P16591 whole entry): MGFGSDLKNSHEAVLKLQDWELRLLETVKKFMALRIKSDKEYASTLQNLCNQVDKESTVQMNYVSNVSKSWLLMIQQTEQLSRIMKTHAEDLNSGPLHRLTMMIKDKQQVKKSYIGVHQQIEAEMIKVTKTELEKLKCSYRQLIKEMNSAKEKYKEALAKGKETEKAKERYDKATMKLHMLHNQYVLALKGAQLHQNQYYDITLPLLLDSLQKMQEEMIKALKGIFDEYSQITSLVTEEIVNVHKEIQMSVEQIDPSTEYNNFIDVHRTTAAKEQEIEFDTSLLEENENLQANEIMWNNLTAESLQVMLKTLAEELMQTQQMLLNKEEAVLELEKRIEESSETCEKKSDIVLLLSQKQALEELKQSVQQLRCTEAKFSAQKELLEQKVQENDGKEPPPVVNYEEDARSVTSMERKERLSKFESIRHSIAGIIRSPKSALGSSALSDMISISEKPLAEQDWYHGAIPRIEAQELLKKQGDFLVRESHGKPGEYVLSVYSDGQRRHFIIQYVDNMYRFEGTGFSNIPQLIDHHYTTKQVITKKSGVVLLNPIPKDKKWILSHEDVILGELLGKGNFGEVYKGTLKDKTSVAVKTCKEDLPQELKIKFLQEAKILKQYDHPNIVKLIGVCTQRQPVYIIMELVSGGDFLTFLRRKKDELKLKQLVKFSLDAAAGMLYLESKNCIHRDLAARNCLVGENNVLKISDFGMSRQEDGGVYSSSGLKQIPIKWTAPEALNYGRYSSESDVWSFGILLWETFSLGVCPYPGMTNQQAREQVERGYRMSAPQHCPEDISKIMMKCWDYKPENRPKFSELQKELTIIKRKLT
T5 sequence (Q9Y6M4 whole entry): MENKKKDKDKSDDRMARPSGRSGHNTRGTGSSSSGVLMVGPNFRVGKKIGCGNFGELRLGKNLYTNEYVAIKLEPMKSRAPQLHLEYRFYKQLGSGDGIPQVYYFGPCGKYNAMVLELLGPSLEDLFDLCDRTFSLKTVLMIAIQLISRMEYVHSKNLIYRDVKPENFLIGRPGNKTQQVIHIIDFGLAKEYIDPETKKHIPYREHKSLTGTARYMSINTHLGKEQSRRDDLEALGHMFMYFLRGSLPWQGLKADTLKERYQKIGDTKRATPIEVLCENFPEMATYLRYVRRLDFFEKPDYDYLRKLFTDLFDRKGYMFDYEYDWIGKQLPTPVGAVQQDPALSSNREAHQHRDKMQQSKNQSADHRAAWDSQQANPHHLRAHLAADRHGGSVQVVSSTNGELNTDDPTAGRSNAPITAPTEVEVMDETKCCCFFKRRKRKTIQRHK
T8 sequence (O96013 whole entry): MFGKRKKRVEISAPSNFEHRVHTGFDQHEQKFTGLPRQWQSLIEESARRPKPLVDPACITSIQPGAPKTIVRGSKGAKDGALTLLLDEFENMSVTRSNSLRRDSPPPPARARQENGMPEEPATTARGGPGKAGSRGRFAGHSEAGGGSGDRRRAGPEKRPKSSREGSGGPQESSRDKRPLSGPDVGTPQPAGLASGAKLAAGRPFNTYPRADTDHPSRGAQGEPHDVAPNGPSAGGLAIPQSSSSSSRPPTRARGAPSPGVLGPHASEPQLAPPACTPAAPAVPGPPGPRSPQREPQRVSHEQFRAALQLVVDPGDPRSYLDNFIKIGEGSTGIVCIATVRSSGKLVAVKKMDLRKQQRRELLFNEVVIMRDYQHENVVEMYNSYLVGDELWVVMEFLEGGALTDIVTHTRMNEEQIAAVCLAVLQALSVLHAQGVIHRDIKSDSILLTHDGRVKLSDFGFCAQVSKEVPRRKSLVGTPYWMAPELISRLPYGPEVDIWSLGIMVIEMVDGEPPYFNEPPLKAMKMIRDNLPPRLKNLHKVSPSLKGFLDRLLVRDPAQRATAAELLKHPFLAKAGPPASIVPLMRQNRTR
T9 sequence (Q9H792 whole entry): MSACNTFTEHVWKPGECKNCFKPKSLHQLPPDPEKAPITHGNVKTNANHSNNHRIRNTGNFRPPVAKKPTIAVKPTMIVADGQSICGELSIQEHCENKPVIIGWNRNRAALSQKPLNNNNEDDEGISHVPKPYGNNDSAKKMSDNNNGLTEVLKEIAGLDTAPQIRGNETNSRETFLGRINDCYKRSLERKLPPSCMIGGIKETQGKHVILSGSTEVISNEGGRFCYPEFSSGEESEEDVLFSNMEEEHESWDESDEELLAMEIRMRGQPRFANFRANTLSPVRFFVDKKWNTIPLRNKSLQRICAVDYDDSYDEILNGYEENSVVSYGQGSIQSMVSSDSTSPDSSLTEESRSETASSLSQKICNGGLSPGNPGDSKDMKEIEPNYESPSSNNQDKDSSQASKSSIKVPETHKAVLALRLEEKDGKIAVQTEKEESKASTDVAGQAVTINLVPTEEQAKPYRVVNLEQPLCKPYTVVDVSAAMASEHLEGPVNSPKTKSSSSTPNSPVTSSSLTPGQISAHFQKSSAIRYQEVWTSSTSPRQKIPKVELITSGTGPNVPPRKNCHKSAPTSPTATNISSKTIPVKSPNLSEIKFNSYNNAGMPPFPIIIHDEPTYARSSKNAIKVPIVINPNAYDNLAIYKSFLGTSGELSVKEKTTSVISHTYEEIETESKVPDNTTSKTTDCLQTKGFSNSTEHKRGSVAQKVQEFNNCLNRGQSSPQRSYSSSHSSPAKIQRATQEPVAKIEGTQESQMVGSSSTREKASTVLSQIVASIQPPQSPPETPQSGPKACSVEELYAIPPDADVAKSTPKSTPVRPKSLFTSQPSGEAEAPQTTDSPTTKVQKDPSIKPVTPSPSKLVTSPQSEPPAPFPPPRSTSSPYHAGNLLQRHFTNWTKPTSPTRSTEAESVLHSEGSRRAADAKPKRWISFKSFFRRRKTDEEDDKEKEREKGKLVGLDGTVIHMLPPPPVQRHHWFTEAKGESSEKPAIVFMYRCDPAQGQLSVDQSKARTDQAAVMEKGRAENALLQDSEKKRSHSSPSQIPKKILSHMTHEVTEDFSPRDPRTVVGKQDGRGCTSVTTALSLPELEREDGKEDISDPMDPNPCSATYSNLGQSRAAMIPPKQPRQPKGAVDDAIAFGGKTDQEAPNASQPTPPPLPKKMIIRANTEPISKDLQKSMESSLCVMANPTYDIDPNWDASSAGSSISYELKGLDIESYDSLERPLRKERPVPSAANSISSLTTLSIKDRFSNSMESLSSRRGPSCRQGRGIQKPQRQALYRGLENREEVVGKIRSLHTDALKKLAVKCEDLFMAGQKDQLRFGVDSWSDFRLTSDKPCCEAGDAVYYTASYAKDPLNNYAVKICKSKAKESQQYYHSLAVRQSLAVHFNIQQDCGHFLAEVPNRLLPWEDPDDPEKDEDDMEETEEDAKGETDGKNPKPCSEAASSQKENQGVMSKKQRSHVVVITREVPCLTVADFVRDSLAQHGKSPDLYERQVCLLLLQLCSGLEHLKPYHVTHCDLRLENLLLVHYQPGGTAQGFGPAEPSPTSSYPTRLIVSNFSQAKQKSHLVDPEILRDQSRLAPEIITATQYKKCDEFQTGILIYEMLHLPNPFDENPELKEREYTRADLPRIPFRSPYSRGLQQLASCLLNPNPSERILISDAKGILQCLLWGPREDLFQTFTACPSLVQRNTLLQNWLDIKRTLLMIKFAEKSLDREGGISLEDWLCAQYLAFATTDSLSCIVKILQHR

Structure (SMILES)	inhibition at 1 µM (CAMK2D (CaMKII delta))	inhibition at 10 µM (CAMK2D (CaMKII delta))	inhibition at 1 µM (CDK2/cyclin A)	inhibition at 10 µM (CDK2/cyclin A)	inhibition at 1 µM (CHEK1 (CHK1))	inhibition at 10 µM (CHEK1 (CHK1))	inhibition at 1 µM (CSNK1G1 (CK1 gamma 1))	inhibition at 10 µM (CSNK1G1 (CK1 gamma 1))	inhibition at 1 µM (CSNK1G3 (CK1 gamma 3))	inhibition at 10 µM (CSNK1G3 (CK1 gamma 3))	inhibition at 1 µM (FER)	inhibition at 10 µM (FER)	inhibition at 1 µM (NEK2)	inhibition at 10 µM (NEK2)	inhibition at 1 µM (PAK4)	inhibition at 10 µM (PAK4)	inhibition at 1 µM (PEAK1)	inhibition at 10 µM (PEAK1)	inhibition at 1 µM (RPS6KA5 (MSK1))	inhibition at 10 µM (RPS6KA5 (MSK1))
COc1ccc2c(c1OC)c(=O)n1c3ccc(O)cc3c3ccnc2c31 [MW01, 5-Hydroxy-10,11-dimethoxy-9H-benzo[c]indolo[3,2,1-ij][1,5]naphthyridin-9-one]	13%	60%	14%	37%	4%	13%	5%	12%	4%	12%	11%	25%	-4%	0%	13%	20%	-1%	16%	5%	25%
COc1ccc2cc3c(N)nn(C(=O)c4cccc(N(C)C)c4)c3nc2c1 [MW05, (3-Amino-7-methoxypyrazolo[3,4-b]quinolin-1-yl)-[3-(dimethylamino)phenyl]methanone]	3%	13%	12%	25%	16%	27%	3%	6%	1%	9%	7%	0%	-3%	1%	11%	15%	2%	0%	2%	-14%
